Assay results as given in article PMC10709440, “High-throughput ligand profile characterization in novel cell lines expressing seven heterologous insect olfactory receptors for the detection of volatile plant biomarkers” (Scientific Reports, 2023).

Columns and labels:
Drosophila OR98a = molecular target: T1, Drosophila OR98a (Drosophila melanogaster, UniProt Q9VAZ3); test: Calcium ion fluorescence (GCaMP6) assay, OR98a stable HEK293 cell line; type: cell-based; details: for Average response / OR98a response (VUAA1-normalized) at 1 μM / OR98a response (VUAA1-normalized) at 10 μM / OR98a response (VUAA1-normalized) at 100 μM: OR98a cell line; for Average response: average of biological replicates, fraction of VUAA1 response; for OR98a Average response (VUAA1-normalized): 50 μM VUAA1 = 1
T1 construct: expressed in transfected cells
T1 sequence (Q9VAZ3 1-397): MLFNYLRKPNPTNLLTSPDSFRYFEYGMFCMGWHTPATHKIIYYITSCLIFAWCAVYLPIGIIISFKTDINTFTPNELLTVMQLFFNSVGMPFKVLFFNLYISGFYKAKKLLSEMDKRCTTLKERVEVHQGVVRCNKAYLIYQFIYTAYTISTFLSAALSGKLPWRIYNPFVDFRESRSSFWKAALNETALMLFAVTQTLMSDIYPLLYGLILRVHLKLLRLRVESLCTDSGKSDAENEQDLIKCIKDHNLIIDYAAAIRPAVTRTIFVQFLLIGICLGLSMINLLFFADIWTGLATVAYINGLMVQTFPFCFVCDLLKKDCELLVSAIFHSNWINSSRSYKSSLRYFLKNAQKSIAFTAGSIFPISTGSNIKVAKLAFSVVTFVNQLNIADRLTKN
T1 sequence (Q9VNB5 1-486 partner): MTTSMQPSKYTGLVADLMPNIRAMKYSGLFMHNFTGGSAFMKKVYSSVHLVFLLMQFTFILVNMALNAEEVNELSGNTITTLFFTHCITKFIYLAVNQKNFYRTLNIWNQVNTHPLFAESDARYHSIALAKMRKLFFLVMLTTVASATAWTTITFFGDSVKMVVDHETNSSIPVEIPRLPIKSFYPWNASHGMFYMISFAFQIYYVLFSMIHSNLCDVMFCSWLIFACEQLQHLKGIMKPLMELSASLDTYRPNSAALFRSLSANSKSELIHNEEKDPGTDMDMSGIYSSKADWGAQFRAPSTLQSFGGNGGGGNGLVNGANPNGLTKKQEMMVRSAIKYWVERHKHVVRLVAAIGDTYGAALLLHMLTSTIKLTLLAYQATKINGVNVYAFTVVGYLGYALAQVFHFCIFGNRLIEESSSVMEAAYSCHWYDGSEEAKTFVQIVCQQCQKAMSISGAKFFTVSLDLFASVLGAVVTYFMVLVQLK
Procedure, shortened: (§1)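 Responses are VUAA1-normalized ΔF: each VOC-evoked calcium signal, (FMAX−F0)/F0 over 30 s after injection, divided by the same line's mean 50 µM VUAA1 response. Cells were doxycycline-induced HEK293 with GCaMP6 and the cognate Drosophila OR, in HEPES buffer pH 7.3; ligands tested 0.01–100 μM.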

Drosophila OR13a = molecular target: T2, Drosophila OR13a (Drosophila melanogaster, UniProt Q9VXL0); test: Calcium ion fluorescence (GCaMP6) assay, OR13a stable HEK293 cell line; type: cell-based; details: for OR13a Average response (VUAA1-normalized): 50 μM VUAA1 = 1, responses not exceeding 0.05 considered 0; for OR13a response (VUAA1-normalized) at 1 μM / OR13a response (VUAA1-normalized) at 10 μM / OR13a response (VUAA1-normalized) at 100 μM: OR13a cell line
T2 construct: expressed in transfected cells
T2 sequence (Q9VXL0 1-418): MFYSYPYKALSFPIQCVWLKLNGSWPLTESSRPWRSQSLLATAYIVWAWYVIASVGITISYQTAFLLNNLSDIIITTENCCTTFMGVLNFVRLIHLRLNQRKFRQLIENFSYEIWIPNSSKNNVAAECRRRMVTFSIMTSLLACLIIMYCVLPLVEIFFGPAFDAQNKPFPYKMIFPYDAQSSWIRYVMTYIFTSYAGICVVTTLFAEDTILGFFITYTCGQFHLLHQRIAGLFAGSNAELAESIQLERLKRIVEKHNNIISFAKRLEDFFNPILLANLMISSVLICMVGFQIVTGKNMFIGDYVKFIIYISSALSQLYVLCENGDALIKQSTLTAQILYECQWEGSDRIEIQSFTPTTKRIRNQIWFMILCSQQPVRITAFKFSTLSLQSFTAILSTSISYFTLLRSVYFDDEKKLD
T2 sequence (Q9VNB5 1-486 partner): T1 sequence (Q9VNB5 1-486 partner)
Procedure, shortened: as §1

[1] = concentration 1, normalized fluorescence change, values below 0.05 threshold given as 0
[2] = concentration 10, normalized fluorescence change, values below 0.05 threshold given as 0
[3] = concentration 100, normalized fluorescence change, values below 0.05 threshold given as 0
[4] = ligand concentration 1 (unit not given), 0.05 threshold, values below shown as 0
[5] = ligand concentration 10 (unit not given), 0.05 threshold, values below shown as 0
[6] = ligand concentration 100 (unit not given), 0.05 threshold, values below shown as 0

| Compound | OR98a response (VUAA1-normalized response) (Drosophila OR98a; VOC concentration 1 μM) | OR98a response (VUAA1-normalized response) (Drosophila OR98a; VOC concentration 10 μM) | OR98a response (VUAA1-normalized response) (Drosophila OR98a; VOC concentration 100 μM) | Average response (Drosophila OR98a; cc. 1 µM) | Average response (Drosophila OR98a; cc. 10 µM) | Average response (Drosophila OR98a; cc. 100 µM) | OR13a Average response (VUAA1-normalized) (Drosophila OR13a; 1 μM VOC) | OR13a Average response (VUAA1-normalized) (Drosophila OR13a; 10 μM VOC) | OR13a Average response (VUAA1-normalized) (Drosophila OR13a; 100 μM VOC) | OR13a response (VUAA1-normalized response) (Drosophila OR13a; VOC concentration 1 μM) | OR13a response (VUAA1-normalized response) (Drosophila OR13a; VOC concentration 10 μM) | OR13a response (VUAA1-normalized response) (Drosophila OR13a; VOC concentration 100 μM) | OR98a response (VUAA1-normalized) at 1 μM (Drosophila OR98a; VOC concentration 1 μM) | OR98a response (VUAA1-normalized) at 10 μM (Drosophila OR98a; VOC concentration 10 μM) | OR98a response (VUAA1-normalized) at 100 μM (Drosophila OR98a; VOC concentration 100 μM) | OR13a response (VUAA1-normalized) at 1 μM (Drosophila OR13a; VOC concentration 1 μM) | OR13a response (VUAA1-normalized) at 10 μM (Drosophila OR13a; VOC concentration 10 μM) | OR13a response (VUAA1-normalized) at 100 μM (Drosophila OR13a; VOC concentration 100 μM) | also measured |
| --- | --- | --- | --- | --- | --- | --- | --- | --- | --- | --- | --- | --- | --- | --- | --- | --- | --- | --- | --- |
| CC1=CCC[C@@]2(C)[C@@H]3CC[C@]12CC3(C)C [(−)-α-neoclovene] | 0.15 | 0.00 | 0.00 | 0.15 | 0.00 | 0.0421 | 0.0436 | 0.00 | 0.00 | 0.00 | 0.00 | 0.00 |  |  |  |  |  |  | DF norm AVERAGE OR98a (Drosophila OR98a; [1]): 0.1483; DF norm AVERAGE OR98a (Drosophila OR98a; [2]): 0; DF norm AVERAGE OR98a (Drosophila OR98a; [3]): 0; DF norm AVERAGE OR13a (Drosophila OR13a; [1]): 0; DF norm AVERAGE OR13a (Drosophila OR13a; [2]): 0; DF norm AVERAGE OR13a (Drosophila OR13a; [3]): 0 |
| CC/C=C\CCO [E-3-hexenol] | 0.00 | 0.00 | 0.00 |  |  |  |  |  |  | 0.00 | 0.00 | 0.07 |  |  |  |  |  |  |  |
| CC/C=C\CCO [Z3-hexenol] |  |  |  | 0.00 | 0.17 | 0.11 | 0.04 | 0.06 | 0.00 |  |  |  |  |  |  |  |  |  | OR98a Average response (VUAA1-normalized) (Drosophila OR98a; 1 μM VOC): 0.00; OR98a Average response (VUAA1-normalized) (Drosophila OR98a; 10 μM VOC): 0.17; OR98a Average response (VUAA1-normalized) (Drosophila OR98a; 100 μM VOC): 0.11; DF norm AVERAGE OR98a (Drosophila OR98a; [4]): 0; DF norm AVERAGE OR98a (Drosophila OR98a; [5]): 0.167; DF norm AVERAGE OR98a (Drosophila OR98a; [6]): 0.1147; DF norm AVERAGE OR13a (Drosophila OR13a; [4]): 0; DF norm AVERAGE OR13a (Drosophila OR13a; [5]): 0.05798; DF norm AVERAGE OR13a (Drosophila OR13a; [6]): 0 |
| CC/C=C\CCO [Z-3-hexenol] |  |  |  |  |  |  |  |  |  |  |  |  | 0.00 | 0.17 | 0.11 | 0.00 | 0.06 | 0.00 |  |
| CC/C=C\CCOC(C)=O [Z-3-hexenyl acetate] |  |  |  |  |  |  |  |  |  |  |  |  | 0.00 | 0.00 | 0.10 | 0.00 | 0.00 | 0.09 |  |
